According to the supplement of paper PMC13380429:

Columns and labels:
Conditions in all cases: 72 h
Caco-2 [1] = experiment: drug sensitivity score (DSS) for viability; higher = more toxic; extreme values may be limits of the assay
HepG2 [2] = experiment: as above
Calu-3 [3] = experiment: as above
Vero E6 [4] = experiment: as above
U2OS [5] = experiment: as above
Caco-2 [6] = experiment: cell viability relative to DMSO; higher = less toxic
HepG2 [7] = experiment: as above
Calu-3 [8] = experiment: as above
Vero E6 [9] = experiment: as above
U2OS [10] = experiment: as above
Caco-2 [11] = experiment: relative viability EC50 (midpoint between 100% and the lowest measured viability); higher = less toxic
HepG2 [12] = experiment: as above
Calu-3 [13] = experiment: as above
Vero E6 [14] = experiment: as above
U2OS [15] = experiment: as above

SMILES | drug sensitivity score (Caco-2 [1]) | drug sensitivity score (HepG2 [2]) | drug sensitivity score (Calu-3 [3]) | drug sensitivity score (Vero E6 [4]) | drug sensitivity score (U2OS [5]) | cell viability (Caco-2 [6]; 1 nM) | cell viability (Caco-2 [6]; 10 nM) | cell viability (Caco-2 [6]; 100 nM) | cell viability (Caco-2 [6]; 1000 nM) | cell viability (Caco-2 [6]; 10000 nM) | cell viability (HepG2 [7]; 1 nM) | cell viability (HepG2 [7]; 10 nM) | cell viability (HepG2 [7]; 100 nM) | cell viability (HepG2 [7]; 1000 nM) | cell viability (HepG2 [7]; 10000 nM) | cell viability (Calu-3 [8]; 1 nM) | cell viability (Calu-3 [8]; 10 nM) | cell viability (Calu-3 [8]; 100 nM) | cell viability (Calu-3 [8]; 1000 nM) | cell viability (Calu-3 [8]; 10000 nM) | cell viability (Vero E6 [9]; 1 nM) | cell viability (Vero E6 [9]; 10 nM) | cell viability (Vero E6 [9]; 100 nM) | cell viability (Vero E6 [9]; 1000 nM) | cell viability (Vero E6 [9]; 10000 nM) | cell viability (U2OS [10]; 1 nM) | cell viability (U2OS [10]; 10 nM) | cell viability (U2OS [10]; 100 nM) | cell viability (U2OS [10]; 1000 nM) | cell viability (U2OS [10]; 10000 nM) | relative viability EC50 (Caco-2 [11]) | relative viability EC50 (HepG2 [12]) | relative viability EC50 (Calu-3 [13]) | relative viability EC50 (Vero E6 [14]) | relative viability EC50 (U2OS [15])
COc1ccc(C(Cl)=C(c2ccc(OC)cc2)c2ccc(OC)cc2)cc1 [chlorotrianisene] | 0 | 0 | 0 | 0 | 0 | 98.5% | 97.5% | 98% | 104% | 102% | 98.5% | 94.9% | 93.6% | 111% | 101% | 98.5% | 95.9% | 104% | 83.6% | 99.9% | 93.8% | 103% | 91.8% | 99.5% | 106% | 95.5% | 97.8% | 101% | 102% | 93.6% | > 10 µM | > 10 µM | > 10 µM | > 10 µM | > 10 µM
c1ccc(C2CC2)c(OCC2=NCCN2)c1 [cirazoline] | 0 | 0 | 0 | 0 | 0 | 97.1% | 95% | 102% | 90.4% | 113% | 95.5% | 97.6% | 94.8% | 107% | 110% | 108% | 97.2% | 99.3% | 107% | 98.6% | 93.7% | 97.2% | 95.8% | 106% | 107% | 94.2% | 95.7% | 99.5% | 97.6% | 98.1% | > 10 µM | > 10 µM | > 10 µM | > 10 µM | > 10 µM
O=P(O)(O)C(Cl)(Cl)P(=O)(O)O [clodronic-acid] | 0 | 0 | 0 | 0 | 0 | 98% | 103% | 96.3% | 100% | 100% | 99.2% | 96.6% | 98.6% | 101% | 102% | 94.3% | 97.1% | 96.5% | 96.1% | 109% | 108% | 103% | 97.7% | 101% | 99.1% | 99.4% | 102% | 105% | 101% | 103% | > 10 µM | > 10 µM | > 10 µM | > 10 µM | > 10 µM
Cc1cc(C(C#N)c2ccc(Cl)cc2)c(Cl)cc1NC(=O)c1cc(I)cc(I)c1O (stereo not given) [closantel] | 0 | 0 | 0 | 0 | 0 | 97.4% | 99.6% | 99.8% | 97.5% | 100% | 95% | 95.5% | 102% | 86.4% | 107% | 90.9% | 95.5% | 92.3% | 92.4% | 95.3% | 101% | 98.2% | 96.2% | 93.7% | 101% | 93.3% | 96.7% | 97.4% | 98.8% | 104% | > 10 µM | > 10 µM | > 10 µM | > 10 µM | > 10 µM
CC1CC(OC(=O)C(O)c2ccccc2)CC(C)(C)C1 (stereo not given) [cyclandelate] | 0 | 0 | 0 | 0 | 0 | 91.5% | 105% | 94.3% | 105% | 108% | 103% | 91.9% | 100% | 96.3% | 98.3% | 95.9% | 90.2% | 102% | 95.5% | 99% | 97.8% | 99.1% | 100% | 96.7% | 94.9% | 97.2% | 103% | 97.5% | 102% | 97.5% | > 10 µM | > 10 µM | > 10 µM | > 10 µM | > 10 µM
Nc1ccc(S(=O)(=O)c2ccc(N)cc2)cc1 [dapsone] | 0 | 0 | 0 | 0 | 0 | 106% | 95.6% | 104% | 100% | 91.7% | 112% | 107% | 93.2% | 106% | 96.6% | 104% | 98.6% | 90.4% | 106% | 101% | 98.5% | 106% | 105% | 106% | 100% | 99.3% | 97.1% | 95.8% | 96.2% | 100% | > 10 µM | > 10 µM | > 10 µM | > 10 µM | > 10 µM
Cc1oc(-c2ccccc2)nc1CCC(=O)c1ccc(CC2SC(=O)NC2=O)cc1 (stereo not given) [darglitazone] | 0 | 0 | 0 | 4.8 | 0 | 102% | 95.5% | 96.2% | 91.9% | 91.2% | 96.9% | 95% | 95.8% | 96.3% | 95.4% | 97.4% | 110% | 114% | 111% | 119% | 96% | 90.8% | 83.3% | 76% | 83.3% | 109% | 98.7% | 102% | 102% | 103% | > 10 µM | > 10 µM | > 10 µM | > 10 µM | > 10 µM
CC(C)Nc1cccnc1N1CCN(C(=O)c2cc3cc(NS(C)(=O)=O)ccc3[nH]2)CC1 [delavirdine] | 0 | 0 | 0 | 0 | 0 | 99.4% | 96.4% | 101% | 101% | 94.2% | 98.8% | 108% | 99.2% | 115% | 107% | 100% | 93% | 104% | 90.5% | 105% | 92.2% | 99% | 87.9% | 95.3% | 105% | 101% | 101% | 102% | 98.5% | 102% | > 10 µM | > 10 µM | > 10 µM | > 10 µM | > 10 µM
Clc1ccc2c(c1)CCc1cccnc1C2=C1CCNCC1 [desloratadine] | 0 | 0 | 0 | 0 | 0 | 91.2% | 93.5% | 94.7% | 90.2% | 102% | 113% | 90.7% | 97.2% | 110% | 93.1% | 99.9% | 100% | 110% | 104% | 106% | 104% | 102% | 104% | 106% | 99.9% | 100% | 98.9% | 97.3% | 104% | 95.6% | > 10 µM | > 10 µM | > 10 µM | > 10 µM | > 10 µM
Cc1onc(-c2c(Cl)cccc2Cl)c1C(=O)N[C@@H]1C(=O)N2[C@@H]1SC(C)(C)[C@@H]2C(=O)O [dicloxacillin] | 0 | 0 | 0 | 0 | 0 | 100% | 99.6% | 93.3% | 98.2% | 101% | 97.5% | 98.1% | 106% | 100% | 110% | 98.2% | 84.7% | 96% | 97.6% | 98.9% | 99.4% | 97.7% | 102% | 94.1% | 96.3% | 95.6% | 99.9% | 93.7% | 97.9% | 94.9% | > 10 µM | > 10 µM | > 10 µM | > 10 µM | > 10 µM
C[C@H]1O[C@@H](O[C@H]2[C@@H](O)C[C@H](O[C@H]3[C@@H](O)C[C@H](O[C@H]4CC[C@@]5(C)[C@H](CC[C@@H]6[C@@H]5C[C@@H](O)[C@]5(C)[C@@H](C7=CC(=O)OC7)CC[C@]65O)C4)O[C@@H]3C)O[C@@H]2C)C[C@H](O)[C@@H]1O [digoxin] | 18.9 | 18.9 | 14 | 30.2 | 20.1 | 97.7% | 99.5% | 65.7% | 21% | 20.3% | 107% | 105% | 72% | 16.4% | 8.7% | 101% | 102% | 96.4% | 26.5% | 12.8% | 95.1% | 94.9% | 5.8% | 1.2% | 1.3% | 97.3% | 96.1% | 82.7% | 4.6% | 4.8% | 0.114 µM | 0.177 µM | 0.449 µM | 0.031 µM | 0.182 µM
C[N+]1(C)CCC(=C(c2ccccc2)c2ccccc2)CC1 [diphemanil] | 0 | 0 | 0 | 0 | 0 | 97.2% | 100% | 95.7% | 101% | 93.6% | 113% | 98.1% | 108% | 97.6% | 110% | 95.3% | 107% | 110% | 96.1% | 102% | 105% | 108% | 103% | 99.9% | 102% | 101% | 99.7% | 95.5% | 97.7% | 97.4% | > 10 µM | > 10 µM | > 10 µM | > 10 µM | > 10 µM
O=c1c(-c2ccccc2)c1-c1ccccc1 [diphencyprone] | 0 | 0.2 | 0 | 0 | 0.5 | 110% | 103% | 114% | 106% | 97.2% | 95.2% | 91.4% | 95.7% | 89.8% | 86% | 105% | 97.6% | 104% | 111% | 122% | 101% | 104% | 99.6% | 99.1% | 93.5% | 98.9% | 99.5% | 103% | 98% | 84.2% | > 10 µM | > 10 µM | > 10 µM | > 10 µM | > 10 µM
COCCN(C(=O)c1cc(OC)c(OC)c(OC)c1)c1nc(-c2ccccc2)cs1 [eact] | 0.1 | 0 | 0.4 | 0 | 0 | 103% | 84.3% | 96.2% | 88.9% | 90.9% | 107% | 95.6% | 104% | 104% | 92.5% | 107% | 96.2% | 94.1% | 92.8% | 85.1% | 94.4% | 104% | 90.4% | 96.6% | 97.5% | 102% | 97% | 100% | 96.1% | 106% | > 10 µM | > 10 µM | > 10 µM | > 10 µM | > 10 µM
